US11123351B2, “Pharmaceutical formulation of 3-alpha-ethynyl-3-beta-hydroxyandrostan-17-one oxime” (priority 2017, dated 2021)
≈ marks a conversion by molar mass, not a printed value.

Legend:
[1] = Solubility of Compound I in different vehicles (visual inspection); format: physicochemical
Method: The sample was heated, if required to melt the vehicle, to approx. from 15° C.-80° C. and agitated by vortex or stirrer.
Addition was continued until a clear solution was not longer obtained after mixing.
Glycerol monooleate [Cithrol GMO from Croda Health Care] was melted at 50° C. […] The sample was heated and agitated by vortex.
(0.91 g). The sample was heated to approx. 40° C. and agitated by vortex.
The sample was agitated by vortex at room temperature.
The material was stirred at least 30 minutes between each addition.
Upon completed dissolution the temperature was decreased to 30° C. and the solution was filled in hard gelatin capsules of size 0. The target fill weight was 500 mg where after the capsules were capped and kept at −20° C. for 2-3 hours before storage in refrigerator.

[2] = Solubility of 3α-ethynyl-3β-hydroxyandrostan-17-one oxime in aqueous media; format: physicochemical
[3] = Clinical Phase I single ascending dose (SAD) study, pharmacokinetics and safety; format: in vivo, human
Excerpt: (§1) In total 90 eligible healthy consenting male subjects (age 18-50 years) were included in the study. The oral formulation used was a capsule containing a lipid solution of 3α-ethynyl-3β-hydroxyandrostan-17-one oxime formulated according to Example 10 above (IND formulation in the following).
(§2) The first in human single ascending dose (SAD) study (EudraCT 2015-004911-19) and the 5 day multiple ascending dose (MAD) study (EudraCT 2016-003651-30) were prospective, randomized, double-blinded and placebo-controlled and designed to assess the safety, tolerability and pharmacokinetic (PK) characteristics of single and multiple ascending oral doses of 3α-ethynyl-3β-hydroxyandrostan-17-one oxime (IND compound) in healthy male volunteers.
(§3) The IND compound and allopregnanolone were quantified by UPLC/MS/MS Waters Acquity, C18 column, and Waters XEVO-TQ-S triple quadrupole mass spectrometer. As internal standards D4-[3α-ethynyl-3β-hydroxyandrostan-17-one oxime] and D5-allopregnanolone were used, respectively. For analysis of allopregnanolone oxime-derivatization was used to increase sensitivity. Standard- and QC-samples were prepared into human blank plasma/serum. The detection limit for 3α-ethynyl-3β-hydroxyandrostan-17-one oxime was 1 ng/mL, and for allopregnanolone 0.05 ng/ml (0.15 nmol/L).
(§4) Pharmacokinetic parameters were evaluated using Non-Compartmental Analysis and the software Phoenix WinNonlin® version 6.3 or later (Pharsight Corporation, U.S.A.). Dose proportionality was for the SAD study based on AUC0->∞ and Cmax, and in the MAD study on steady-state AUCτ. The accumulation ratio between the first and last dose was calculated as (steady-state AUCτ/first dose AUC0->∞). Statistical calculations were with IBM SPSS statistics (Version 24, IBM).

[4] = Clinical Phase I 5 day multiple ascending dose (MAD) study, pharmacokinetics and safety; format: in vivo, human; conditions: for AUC increase / CMax increase: multiple dose
Excerpt: as §1, §2
MAD: 50 mg once daily; 50 mg twice daily (BID), i.e. 100 mg/day; or 100 mg twice daily (BID), i.e. 200 mg/day.
as §3, §4

[5] = test system: GABA-A receptor; experiment: Antagonist study: allopregnanolone-induced decrease in maximal saccadic eye velocity (SEV); format: in vivo, human; conditions: responding subjects, responsive period
Method: (§5) The antagonist study, with the purpose of evaluating the biological activity of the IND compound, (EudraCT 2015-004911-19) was randomized and placebo-controlled with a double-blind three-part cross-over design. Study subjects orally received: placebo (A); 3 mg of IND formulation (B); or 30 mg of IND formulation (C); followed 90 minutes later by an intravenous (i.v.) allopregnanolone injection (0.05 mg/kg) and repeated measurements of maximal saccadic eye velocity (SEV) (Saccadometer Plus, Ober Consulting Sp. z o.o, Poland) and sedation/somnolence (visual analogue scale graded from “Absence of sleepiness” to “Falling asleep) for three hours.

[6] = test system: GABA-A receptor; experiment: Antagonist study: allopregnanolone-induced sedation (visual analogue scale); format: in vivo, human; conditions: responding subjects, VAS scores
Method: as §5

[7] = Serum allopregnanolone exposure in the antagonist study; format: in vivo, human
Method: as §5, §3

[8] = single dose 3 mg versus next lower dose
[9] = single dose 10 mg versus next lower dose
[10] = single dose 30 mg versus next lower dose
[11] = single dose 100 mg versus next lower dose
[12] = single dose 200 mg versus next lower dose
[13] = day 1, 100 mg BID versus next lower dose
[14] = steady-state, day 5, 100 mg BID versus next lower dose
[15] = allopregnanolone + Compound I 3 mg oral
[16] = allopregnanolone + Compound I 30 mg oral
[17] = allopregnanolone 0.05 mg/kg i.v. + placebo

**Q.** What does the source list for `C#C[C@]1(O)CC[C@@]2(C)C(CC[C@@H]3[C@@H]2CC[C@]2(C)/C(=N/O)CC[C@@H]32)C1` (stereo partly drawn) [Compound I, 3α-ethynyl-3β-hydroxyandrostan-17-one oxime]?
**A.** Concentration that could be dissolved ([1]; Capric/caprylic glyceride Imwitor 742, heating temperature 60° C.): 20000 µg/mL; Concentration that could be dissolved ([1]; Capric/caprylic glyceride Imwitor 742, heating temperature 70° C.): 40000 µg/mL; Solubility ([1]; Example 1, Capric/caprylic glycerides, Imwitor 742, 40° C.): 20 to 30 mg/g; Solubility ([1]; Example 2, Glyceryl monooleate, Cithrol GMO, melted at 50° C.): 8 mg/g; Solubility ([1]; Example 3, Oleoyl macrogol-6 glycerides, Labrafil M1944 CS, approx. 40° C.): 5 mg/g; Solubility ([1]; Example 5, Propylenglycol monocaprylate type I, Capryol PGMC, room temperature): 15 mg/g; Solubility ([1]; Example 6, Propylenglycol monocaprylate type II, Capryol 90, room temperature): 23 mg/g; Solubility ([1]; Example 7, Polyoxyethylene-8 caprylic/capric glycerides, Acconon MC8-2, room temperature): 2 mg/g; Solubility ([1]; propylene glycol monolaurate type I (Lauroglycol FCC), oil or lipid, thermodynamic from solid, Example 4, Propylenglycol monolaurate type I, Lauroglycol FCC, room temperature, read-out: Solubility): 6000 µg/mL (≈ 18200 µM); Solubility ([2]; FaSSIF (fasted-state simulated intestinal fluid), fassif): 7 µg/mL (≈ 21.2 µM); Solubility ([2]; FeSSIF (fed-state simulated intestinal fluid), fessif): 19 µg/mL (≈ 57.7 µM); Solubility ([2]; SGF (simulated gastric fluid), simulated gastric fluid): 0.2 µg/mL (≈ 0.607 µM); Solubility ([2]; water): 1.5 µg/mL (≈ 4.55 µM); Serious adverse events (SAEs) and dose-limiting toxicity ([3]; healthy adult males, single dose up to 200 mg): neither serious adverse events (SAEs) nor dose-limiting toxicity was observed; Dose proportionality constant β for AUC0-∞ ([3]; human, in vivo, po, 200 mg): 1.12; Dose proportionality constant β for CMax ([3]; human, in vivo, po, 200 mg): 1.01; AUC(0-inf) ([3]; male, human, in vivo, 1 mg): 67 ng·h/mL; Cmax ([3]; male, human, in vivo, 1 mg): 0.013 µg/mL; AUC(0-inf) ([3]; male, human, in vivo, 3 mg): 215 ng·h/mL; Cmax ([3]; male, human, in vivo, 3 mg): 0.044 µg/mL; AUC(0-inf) ([3]; male, human, in vivo, 10 mg): 785 ng·h/mL; Cmax ([3]; male, human, in vivo, 10 mg): 0.149 µg/mL; AUC(0-inf) ([3]; male, human, in vivo, 30 mg): 2560 ng·h/mL; Cmax ([3]; male, human, in vivo, 30 mg): 0.464 µg/mL; AUC(0-inf) ([3]; male, human, in vivo, 100 mg): 11900 ng·h/mL; Cmax ([3]; male, human, in vivo, 100 mg): 1.53 µg/mL; AUC(0-inf) ([3]; male, human, in vivo, 200 mg): 25800 ng·h/mL; Cmax ([3]; male, human, in vivo, 200 mg): 2.77 µg/mL; Tmax ([3]; male, human, in vivo, po): 1 to 2 h; AUC increase [3, 8]: 3.2 fold; CMax increase [3, 8]: 3.4 fold; AUC increase [3, 9]: 3.7 fold; CMax increase [3, 9]: 3.4 fold; AUC increase [3, 10]: 3.3 fold; CMax increase [3, 10]: 3.1 fold; AUC increase [3, 11]: 4.6 fold; CMax increase [3, 11]: 3.3 fold; AUC increase [3, 12]: 2.2 fold; CMax increase [3, 12]: 1.8 fold; Serious adverse events (SAEs) and dose-limiting toxicity ([4]; healthy adult males, up to 100 mg every 12 hours for 5 days): neither serious adverse events (SAEs) nor dose-limiting toxicity was observed; Increase in AUC0->∞ when the dose was doubled ([4]; human, in vivo): 1.9 times; AUC increase [4, 13]: 1.9 fold; CMax increase [4, 13]: 1.4 fold; AUC increase [4, 14]: 1.9 fold; CMax increase [4, 14]: 1.6 fold; AUC (ΔSEV) [5, 15]: −1592 ± 924 deg/s × min; AUC (ΔSEV) [5, 16]: −909 ± 798 deg/s × min; AUC (ΔSedation) [6, 15]: 698 ± 332 mm × min; AUC (ΔSedation) [6, 16]: 416 ± 469 mm × min

**Q.** With `CC(=O)[C@H]1CC[C@H]2[C@@H]3CC[C@H]4C[C@H](O)CC[C@]4(C)[C@H]3CC[C@]12C` [Allopregnanolone, allopregnanolone, reference compound] as the molecule, how does the “AUC (ΔSEV)” value [5, 17] read?
**A.** Its value is −3018 ± 656 deg/s × min.

**Q.** And the “AUC (ΔSedation)” value [6, 17]?
**A.** Its value is 1928 ± 404 mm × min.

**Q.** And the Highest serum level ([7]; first study time point after i.v. injection 0.05 mg/kg, three study occasions)?
**A.** Its Highest serum level is 74 to 82 nM.

**Q.** And the concentration at 10 min ([7]; human, serum, intravenous, 0.05 mg/kg, 10 min after injection, average)?
**A.** The concentration at 10 min was ~80 nM.
